Reference: US10533034B2, “Human iNKT cell activation using glycolipids” (ACADEMIA SINICA, priority 2014, dated 2020)

Legend:
[1] = test system: human naïve Vα24+ iNKT cells; assay: Expansion of human iNKT cells; assay type: cell-based; settings: 100 ng/ml; counted on day 9
Method: Human naïve Vα24^+ iNKT cells were cultured with autologous immature CD14^+ DCs pulsed with the indicated glycolipid at 100 ng/ml or DMSO on day 2 for 18 h. On day 3, the suspension cells were transferred to a new dish, cultured in the presence of 50 U/ml IL-2 (R & D Systems), and replenished with fresh medium every 3 days. The percentage of Vα24^+/Vβ11^+ cells was determined by flow cytometry on day 9. The total cell number after expansion was calculated with the Guava ViaCount reagent (Millipore, USA) and detected by the Guava system with CytoSoft™ software containing the ViaCount module (Millipore, USA).
As described above, glycolipid analogs with αGal were stronger immune modulators than those with αGlc in mice, especially for the comparison between 7DW8-5 and 7DW8-5-Glc. To investigate if similar trends also applied to human iNKT cells, Vα24^+ iNKT cells isolated from the peripheral blood were incubated with immature DCs pulsed with the indicated glycolipid at 100 ng/ml on day 2. After antigen removal on day 3, human iNKT cells were cultured in the presence of IL-2. The number of expanded iNKT cells was counted using the Guava ViaCount reagent on day 9.

[2] = test system: B6 WT mice splenocytes; assay: FACS analyses of WT mouse immune cells after glycolipid stimulation; assay type: in vivo; settings: 1 μg/mouse; 3 days
Method: B6 WT mice treated with the indicated glycolipid (1 μg/mouse) or vehicle (1% DMSO in PBS) were sacrificed at 72 hr post-injection and their splenocytes were subjected to FACS analysis. (8A) The total splenocytes, (8B) total CD11Chi cells, (8C) CD11Chi/CD80+ cells, (8D) CD11Chi/CD86+ cells, (8E) CD4^+ T cells and (8F) CD8^+ T cells.
B6 WT or Jα18 KO mice treated with specific glycolipid (1 μg/mouse) or vehicle (1% DMSO in PBS) were sacrificed at 72 hr post-injection and their spleens were harvested. After pressing spleens through 70 um strainer and lysis of erythrocytes, the nucleated cells were resuspended in PBS buffer containing azide (0.05%) and stained with antibodies recognizing the indicated cell surface antigens for 30 min at 4° C. After washing, the splenocytes were subjected to FACS analysis. The antibodies against CD3, CD4, CD8α, CD11c, CD80, and CD86 were obtained from BD Bioscience-Pharmingen.
Next, we analyzed the expansion/activation of immune cells in WT mice 3 days after glycolipid stimulation. The numbers of total T cells, CD4^+ T and CD8^+ T cells were higher in mice treated by GSLs with αGal head than those treated by GSLs with αGlc (FIGS. 2C, 8E and 8F). This was in line with the observation that more cytokines/chemokines were induced by GSLs with αGal than GSLs with αGlc in mice (FIGS. 2A, 2B and 7). […] As compared to 7DW8-5-Glc, C1-Glc not only expanded ˜1.3 fold more splenocytes and DCs (FIGS. 8A and 8B) but also activated ˜3.5 fold more CD80^+ DCs as well as ˜3 fold more CD86^+ DCs (FIGS. 8C and 8D). The increased expansion/activation of DCs may contribute to the stronger immunogenicity triggered by C1-Glc and C34-Glc as compared to 7DW8-5-Glc in vivo.

[3] = test system: Murine DN3A4-1.2 Vα14 iNKT hybridoma cells; assay: mCD1d vs. hCD1d swapping assay, murine iNKT cells; assay type: cell-based, mouse; settings: presented by mCD1d or hCD1d; 1, 0.1, 0.01 μg/ml
Method: (§1) (4A) Murine DN3A4-1.2 Vα14+ iNKT hybridoma cells or (4B) C1-expanded Vα24^+ iNKT cells were pulsed with the indicated glycolipid presented by either mCD1d (A20-CD1d cells) or hCD1d (HeLa-CD1d cells) at 1, 0.1, and 0.01 μg/ml. After 18 hr, the supernatants were harvested to measure IL-2 secretion by an ELISA assay (4A) or using Beadlyte® Human Cytokine kit and Luminex® 200™ reading system (4B). Assays were performed in triplicates. 8-5 was the abbreviation of 7DW8-5.
(§2) Murine DN3A4-1.2 Vα14 iNKT hybridoma cells or C1-expanded Vα24^+ iNKT cells were pulsed with the indicated glycolipid antigen presented either by mCD1d (A20-CD1d cells) or hCD1d (HeLa-CD1d cells) at 1, 0.1, and 0.01 μg/ml. After 18 hr, the supernatants were harvested for the measurement of cytokine secretion(s). IL-2 released from Vα14^+ iNKT cells was determined by ELISA assay. IFN-γ, IL-4 and IL-2 secreted from Vα24^+ iNKT cells were detected using Beadlyte® Human Cytokine kit (Millipore, N.Y., USA) and Luminex® 200™ reading system.
To explain the species-specific responses, we examined the effects of swapping human vs. mouse CD1d molecules against human vs. murine iNKT cells on the stimulatory activities of GSLs with different glycosyl groups. […]

[4] = test system: C1-expanded Vα24+ iNKT cells; assay: mCD1d vs. hCD1d swapping assay, human iNKT cells; assay type: cell-based; settings: presented by mCD1d or hCD1d; 1, 0.1, 0.01 μg/ml
Method: as §1
C1-expanded Vα24^+ iNKT cells were pulsed with the indicated glycolipid antigen presented by either mCD1d (A20-CD1d cells) or hCD1d (HeLa-CD1d cells) at 1, 0.1, and 0.01 μg/ml. After 18 hr, the supernatants were harvested for the measurement of IFN-γ (12A) and IL-4 (12B) secretions. (12C) The ratio of IFN-γ over IL-4 was calculated at different concentrations of glycolipids. […]
as §2, with “After 18 hr, the supernatants were harvested for the measurement of cytokine secretion(s).” left out, “system. […]” for “system.”

Row | SMILES | expansion of human iNKT cells in vitro compared with 7DW8-5 [1] | expansion of immune cells in WT mice [2] | cytokine (IL-2) secretion from murine iNKT cells [3] | cytokine secretion (IL-2, IFN-γ, IL-4) from human iNKT cells [4]
1 | CC[C@@H](O)[C@@H](O)[C@H](CO[C@H]1OC(CO)[C@@H](O)C(O)C1O)NC(=O)Cc1ccc(F)cc1 (stereo partly shown) [Compound 7DW8-5-Glc] | significantly (p=0.0009) better |  |  | 
2 | CCCCCCCCCCCCCC[C@@H](O)[C@@H](O)[C@H](CO[C@H]1O[C@H](CO)[C@@H](O)[C@H](O)[C@@H]1O)NC(=O)CCCCCCCCCCc1ccc(F)cc1 [Compound 7DW8-5-Man] |  | did not expand any types of immune cells | could not stimulate | could not stimulate
